One data set has as its system NEP. The data set can be described thus: Modulation of NEP activity, FRET substrate Abz-RGFK(Dnp)-OH. To be noted: 10 µM peptide, 1.5 ng NEP, Abz-RGFK(Dnp)-OH (3.5 µM in method, 10 µM in table note), Tris HCl 50 mM, pH 7.5, 37 °C, 15 min, fluorescence 320/420 nm, triplicate. It is filed as biochemical, human. How it is done:
The results were obtained by incubating the enzymes with their FRET substrates (10 µM) in a final volume of 100 µL. For the ACE assays, the used buffer was Tris HCl 100 mM, NaCl 50 mM and ZnCl2 10 µM, pH 7.0. For NEP, the assays were made in Tris HCl 50 mM, pH 7.5 buffer. All reactions occurred at 37 °C, in a Victor 3 fluorimeter (Perkin–Elmer) adjusted for excitation and emission readings at 320 and 420 nm, respectively, for 15 min (one reader per minute). Results were obtained in triplicate and analyzed on GraFit 5 software.
For ACE assays, 10 µM of each peptide was incubated with 3.0 ng of peptidase and 10 µM of Abz-FRK (Dnp) P-OH substrate, in Tris HCl 100 mM, NaCl 50 mM and ZnCl2 10 µM, pH 7.0 buffer. For NEP, 10 µM of TsHpt-I or -II was incubated with 1.5 ng of peptidase, 3.5 µM Abz-RGFK (Dnp)-OH in Tris HCl 50 mM, pH 7.5 buffer. All reactions occurred at 37 °C, in a final volume of 100 µL, in a Victor 3 fluorimeter (Perkin–Elmer, Waltham, MA, USA) adjusted for excitation and emission readings at 320 and 420 nm, respectively, for 15 min (one reader per minute). Results were obtained in triplicate and analyzed using GraFit 5 (Erithacus software, East Grinstead, West Sussex, UK).

The subject of a further data set is T1, ACE.
T1 construct: Angiotensin Converting Enzyme (ACE) from rabbit lung; purchased Sigma-Aldrich; host or cells: rabbit lung tissue
The data set can be described thus: Stability of peptides against ACE (susceptibility to hydrolysis, RP-HPLC). It is filed as in vitro ADME. To be noted: rabbit, isolated ACE (angiotensin-converting enzyme); 30 µM peptide, ACE 3.0 ng, Tris HCl 100 mM, NaCl 50 mM, ZnCl2 10 µM, pH 7.0, 4 h, 37 °C, RP-HPLC C18, UV 214 nm; read-out: hydrolysis products after incubation with ACE. How it is done: Figure 1 Analysis of the susceptibility to hydrolysis of the hypotensins over the vasopeptidases NEP and ACE. Incubations were carried out in Tris HCl 100 mM, NaCl 50 mM and ZnCl2 10 µM, pH 7.0, for the ACE assays, and, for the NEP assays, in Tris HCl 50 mM, pH 7.5 buffer, for four hours at 37 °C. (A) TsHpt-I control (black line) and after incubation with NEP (red line). (B) TsHpt-II control (black line) and TsHpt-II incubated with NEP (red line). (C) TsHpt-I control (black line) and incubated with ACE (red line). (D) TsHpt-II control (black line) and after incubation with ACE (red line). The samples of negative and experimental controls (A) TsHpt-I and (B) TsHpt-II are shown on the left and right, respectively. The hydrolysis products were considered ≤5%. The gradient used was 20% to 60% solvent B in 20 min, and 60% to 100% solvent B in 5 min (flow 1 mL/min, absorbance at 214 nm). Restek Ultra C-18 5 µm column, 250 × 4.6 mm.
The synthetic peptides TsHpt-I and TsHpt-II (30 µM) were incubated with ACE (3.0 ng), in Tris HCl 100 mM, NaCl 50 mM and ZnCl2 10 µM, pH 7.0 buffer, and NEP (1.5 ng), in Tris HCl 50 mM, pH 7.5 buffer, at 37 °C for 4 h. Samples containing only the synthetic peptides were used as the negative control. After incubation, samples were analyzed by reverse phase chromatography on RP-HPLC (Shimadzu, Kyoto, Japan), using a Restek Ultra C-18 column (5 µm, 250 × 4.6 mm). […]

Data set [1] has as its system murine peritoneal macrophages. The experiment in a line: Phagocytic activity of murine peritoneal macrophages (Saccharomyces cerevisiae). It is filed as cell-based, BALB/c mice. As to conditions: 100 µg/mL, 24 h, then 1 h with Saccharomyces cerevisiae; duplicate; versus negative control. As to the method:
Figure 5 Phagocytic activity of the murine peritoneal macrophages stimulated in vitro with TsHpt-I and -II. Peritoneal exudate macrophages from naïve BALB/c mice were cultured on glass coverslips for 24 h in culture medium or in the presence of LPS (5 μg/mL) or TsHpt-I and -II (100 μg/mL). After this period, the cells were incubated for 1 h with a suspension of Saccharomyces cerevisiae. Coverslips were washed, fixed and stained by Giemsa. (A) Phagocytosis images in 400× magnification. (B) The phagocytic index was calculated based on the percentage of phagocytic cells and on the average number of yeasts per cell, by counting approximately 200 cells per coverslip in 1000× magnification. The results represent one of two reproducible experiments performed in duplicate (mean ± SD). * p < 0.05.
Peritoneal macrophages from naïve BALB/c mice (n = 6) were obtained as described above (item 5.5.1). Cells were distributed in 24-well culture plates (5 × 10^5 cells/500 µL/well), with glass coverslips inside, and incubated for 2 h at 37 °C and 5% CO2. […] Phagocytosis was evaluated by immersion optical microscopy (1000×) and quantified by counting approximately 200 cells per cover slip. The percentage of phagocytic cells and the average number of internalized yeasts per phagocytic cell were calculated. […]

Two sequences from paper PMC8704389, “New Insights into the Hypotensins from Tityus serrulatus Venom: Pro-Inflammatory and Vasopeptidases Modulation Activities” (Toxins, 2021) can be followed below.

No end group written: not given here.

As for AEIDFSGIPEDIIKEIKETNAKPPA [TsHpt-II], the “NEP Inhibition (%)” value in the data set on NEP came to 11%. For the same sequence, the metabolised at 4 h, 30 µM with ACE was no more than 5%. In addition, in data set [1], the phagocytic index result is recorded as “significant increase in the phagocytic index”.

Regarding AEIDFSGIPEDIIKQIKETNAKPPA [TsHpt-I], the “NEP Inhibition (%)” value in the data set on NEP is 75%. Besides, in the data set with ACE, the metabolised at 4 h, 30 µM was no more than 5%. The phagocytic index entry in data set [1] is listed as “significant increase in the phagocytic index”.
